Assay: xn = mol fraction of the nth substance listed
Details: 101 kPa, Liquid; for speed of sound: Single path-length method

COC(C)(C)C [2-methoxy-2-methylpropane] + Cc1ccccc1
Details | mass density [kg/m3] | speed of sound [m/s]
288.15 K, x1 = 0.053 | 864.558 | 1332.9
288.15 K, x1 = 0.116 | 856.488 | 1315.9
288.15 K, x1 = 0.199 | 845.884 | 1295.2
288.15 K, x1 = 0.301 | 832.848 | 1268.1
288.15 K, x1 = 0.371 | 824.068 | 1249.5
288.15 K, x1 = 0.463 | 812.346 | 1225.8
288.15 K, x1 = 0.61 | 793.998 | 1186.3
288.15 K, x1 = 0.688 | 784.329 | 1166
288.15 K, x1 = 0.797 | 770.803 | 1137.3
288.15 K, x1 = 0.902 | 757.81 | 1108.5
288.15 K, x1 = 0.943 | 752.561 | 1097.5
288.15 K, x1 = 1 | 744.861 | 1083.4
290.65 K, x1 = 0.053 | 862.236 | 1321.9
290.65 K, x1 = 0.116 | 854.153 | 1304.8
290.65 K, x1 = 0.199 | 843.533 | 1284.2
290.65 K, x1 = 0.301 | 830.472 | 1257.4
290.65 K, x1 = 0.371 | 821.675 | 1238.5
290.65 K, x1 = 0.463 | 809.929 | 1215
290.65 K, x1 = 0.61 | 791.542 | 1175.6
290.65 K, x1 = 0.688 | 781.848 | 1155
290.65 K, x1 = 0.797 | 768.289 | 1126.6
290.65 K, x1 = 0.902 | 755.262 | 1098.2
290.65 K, x1 = 0.943 | 750 | 1086.8
290.65 K, x1 = 1 | 742.259 | 1071.6
293.15 K, x1 = 0.053 | 859.905 | 1310.9
293.15 K, x1 = 0.116 | 851.805 | 1293.8
293.15 K, x1 = 0.199 | 841.167 | 1273.2
293.15 K, x1 = 0.301 | 828.083 | 1246.4
293.15 K, x1 = 0.371 | 819.27 | 1227.5
293.15 K, x1 = 0.463 | 807.497 | 1203.9
293.15 K, x1 = 0.61 | 789.068 | 1164.7
293.15 K, x1 = 0.688 | 779.352 | 1143.9
293.15 K, x1 = 0.797 | 765.757 | 1115.7
293.15 K, x1 = 0.902 | 752.693 | 1087.4
293.15 K, x1 = 0.943 | 747.415 | 1075.9
293.15 K, x1 = 1 | 739.654 | 1060
295.65 K, x1 = 0.053 | 857.569 | 1299.9
295.65 K, x1 = 0.116 | 849.458 | 1282.8
295.65 K, x1 = 0.199 | 838.799 | 1262.2
295.65 K, x1 = 0.301 | 825.688 | 1235.4
295.65 K, x1 = 0.371 | 816.857 | 1216.5
295.65 K, x1 = 0.463 | 805.058 | 1193
295.65 K, x1 = 0.61 | 786.587 | 1153.6
295.65 K, x1 = 0.688 | 776.847 | 1132.8
295.65 K, x1 = 0.797 | 763.216 | 1104.9
295.65 K, x1 = 0.902 | 750.116 | 1076.7
295.65 K, x1 = 0.943 | 744.822 | 1064.8
295.65 K, x1 = 1 | 737.036 | 1048.5
298.15 K, x1 = 0.053 | 855.229 | 1288.9
298.15 K, x1 = 0.116 | 847.105 | 1271.8
298.15 K, x1 = 0.199 | 836.426 | 1251.2
298.15 K, x1 = 0.301 | 823.289 | 1224.5
298.15 K, x1 = 0.371 | 814.439 | 1205.5
298.15 K, x1 = 0.463 | 802.616 | 1181.8
298.15 K, x1 = 0.61 | 784.1 | 1142.6
298.15 K, x1 = 0.688 | 774.335 | 1122
298.15 K, x1 = 0.797 | 760.667 | 1093.8
298.15 K, x1 = 0.902 | 747.528 | 1065.7
298.15 K, x1 = 0.943 | 742.221 | 1053.5
298.15 K, x1 = 1 | 734.406 | 1036.9
300.65 K, x1 = 0.053 | 852.886 | 1278.1
300.65 K, x1 = 0.116 | 844.749 | 1260.8
300.65 K, x1 = 0.199 | 834.049 | 1240.2
300.65 K, x1 = 0.301 | 820.886 | 1213.6
300.65 K, x1 = 0.371 | 812.02 | 1194.5
300.65 K, x1 = 0.463 | 800.168 | 1170.8
300.65 K, x1 = 0.61 | 781.607 | 1131.6
300.65 K, x1 = 0.688 | 771.814 | 1111.4
300.65 K, x1 = 0.797 | 758.108 | 1082.6
300.65 K, x1 = 0.902 | 744.931 | 1054.4
300.65 K, x1 = 0.943 | 739.606 | 1042.1
300.65 K, x1 = 1 | 731.766 | 1025.4
303.15 K, x1 = 0.053 | 850.544 | 1267.3
303.15 K, x1 = 0.116 | 842.388 | 1250
303.15 K, x1 = 0.199 | 831.668 | 1229.3
303.15 K, x1 = 0.301 | 818.477 | 1202.6
303.15 K, x1 = 0.371 | 809.592 | 1183.6
303.15 K, x1 = 0.463 | 797.712 | 1159.8
303.15 K, x1 = 0.61 | 779.104 | 1120.6
303.15 K, x1 = 0.688 | 769.287 | 1100.2
303.15 K, x1 = 0.797 | 755.539 | 1071.4
303.15 K, x1 = 0.902 | 742.321 | 1043.1
303.15 K, x1 = 0.943 | 736.98 | 1030.7
303.15 K, x1 = 1 | 729.112 | 1013.9
305.65 K, x1 = 0.053 | – | 1256.5
305.65 K, x1 = 0.116 | – | 1239.1
305.65 K, x1 = 0.199 | – | 1218.4
305.65 K, x1 = 0.301 | – | 1191.7
305.65 K, x1 = 0.371 | – | 1172.6
305.65 K, x1 = 0.463 | – | 1148.8
305.65 K, x1 = 0.61 | – | 1109.7
305.65 K, x1 = 0.688 | – | 1089
305.65 K, x1 = 0.797 | – | 1060.2
305.65 K, x1 = 0.902 | – | 1031.7
305.65 K, x1 = 0.943 | – | 1019.3
305.65 K, x1 = 1 | – | 1002.4

From the NIST ThermoML archive (doi:10.1007/s10765-007-0223-x)
